US20120214822A1 (ASTRAZENECA AB, priority 2007, published 2012)
Counter-ions that a name gives are not always drawn.

Each molecule was assayed against human active recombinant p38α-6His tagged (Homo sapiens, UniProt Q16539) (assay: P38 Alpha Enzyme Assay (AlphaScreen, biotinylated-ATF2 substrate)). Settings: p38 alpha enzyme inhibition; means of replicate determinations; 4 h pre-incubation at 37° C.; SD of assay 0.2-0.3 log units.
Format: biochemical
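Note: 0.5 nM final p38α, reaction started with ATP and run 45 min at 37 °C, phospho-ATF2 read by antibody-based AlphaScreen, background wells quenched with EDTA before ATP.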

Chain of human active recombinant p38α-6His tagged (Q16539 whole entry): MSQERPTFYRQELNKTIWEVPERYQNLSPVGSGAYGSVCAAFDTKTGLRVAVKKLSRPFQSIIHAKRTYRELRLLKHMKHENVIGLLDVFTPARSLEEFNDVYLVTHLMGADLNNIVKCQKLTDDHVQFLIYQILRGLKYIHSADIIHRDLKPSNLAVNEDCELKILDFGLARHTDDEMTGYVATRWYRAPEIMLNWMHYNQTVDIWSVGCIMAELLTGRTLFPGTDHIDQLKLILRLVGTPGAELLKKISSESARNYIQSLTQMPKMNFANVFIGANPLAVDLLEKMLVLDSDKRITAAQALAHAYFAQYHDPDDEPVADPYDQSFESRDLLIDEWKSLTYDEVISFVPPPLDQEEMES

Compound | pIC50
Cc1ccc(C)c(CNc2nccn(-c3cc(C(=O)NC4CC4)ccc3C)c2=O)c1 [Example 98, N-Cyclopropyl-3-[3-[[(2,5-dimethylphenyl)methyl]amino]-2-oxo-1(2H)-pyrazinyl]-4-methyl-benzamide] | 7.8
Cc1ccc(C(=O)NC2CC2)cc1-n1ccnc(NCc2cc(C(F)(F)F)cc(C(F)(F)F)c2)c1=O [Example 99, 3-[3-[[[3,5-Bis(trifluoromethyl)phenyl]methyl]amino]-2-oxo-1(2H)-pyrazinyl]-N-cyclopropyl-4-methyl-benzamide] | 7.1
Cc1ccc(C(=O)NC2CC2)cc1-n1ccnc(N[C@@H](c2ccccc2)C2CCNCC2)c1=O [Example 101, N-Cyclopropyl-4-methyl-3-[2-oxo-3-[[(R)-phenyl-4-piperidinylmethyl]amino]-1(2H)-pyrazinyl]-benzamide, trifluoroacetate] | 7.4
Cc1ccc(C(=O)NC2CC2)cc1-n1ccnc(N[C@@H](c2ccccc2)C2CCN(C(=O)OCc3ccccc3)CC2)c1=O [Example 102, 4-[(R)-[[4-[5-[(Cyclopropylamino)carbonyl]-2-methylphenyl]-3,4-dihydro-3-oxopyrazinyl]amino]phenylmethyl]-1-piperidinecarboxylic acid, phenylmethyl ester] | 6.3
Cc1ccc(C(=O)NC2CC2)cc1-n1ccnc(N[C@H](c2ccccc2)C2CCNCC2)c1=O [Example 103, N-Cyclopropyl-4-methyl-3-[2-oxo-3-[[(S)-phenyl-4-piperidinylmethyl]amino]-1(2H)-pyrazinyl]-benzamide trifluoroacetate] | 6.1
Cc1ccc(C(=O)NC2CC2)cc1-n1cc(C#N)nc(NCc2ccccc2)c1=O [Example 104, 3-[5-Cyano-2-oxo-3-[(phenylmethyl)amino]-1(2H)-pyrazinyl]-N-cyclopropyl-4-methyl-benzamide] | 7.2
Cc1ccc(C(=O)NC2CC2)cc1-n1cc(CN(C)C)nc(NCc2ccccc2)c1=O [Example 105, N-Cyclopropyl-3-[5-[(dimethylamino)methyl]-2-oxo-3-[(phenylmethyl)amino]-1(2H)-pyrazinyl]-4-methyl-benzamide] | 6.2
Cc1ccc(C(=O)NC2CC2)cc1-n1cc(C(N)=O)nc(NCc2ccccc2)c1=O [Example 106, 4-[5-[(Cyclopropylamino)carbonyl]-2-methylphenyl]-4,5-dihydro-5-oxo-6-[(phenylmethyl)amino]-2-pyrazinecarboxamide] | 6.2
Cc1ccc(C(=O)NC2CC2)cc1-n1cc(Cl)nc(N2CCN(C)CC2)c1=O [Example 107, 3-[5-Chloro-3-(4-methyl-1-piperazinyl)-2-oxo-1(2H)-pyrazinyl]-N-cyclopropyl-4-methyl-benzamide] | 6.1
Cc1ccc(C(=O)NC2CC2)cc1-n1cc(Cl)nc(NCCCN(C)C)c1=O [Example 108, 3-[5-Chloro-3-[[3-(dimethylamino)propyl]amino]-2-oxo-1(2H)-pyrazinyl]-N-cyclopropyl-4-methyl-benzamide] | 6.3
Cc1ccc(C(=O)NC2CC2)cc1-n1cc(Cl)nc(NCc2ccccc2)c1=O [Example 109, 3-[5-Chloro-2-oxo-3-[(phenylmethyl)amino]-1(2H)-pyrazinyl]-N-cyclopropyl-4-methyl-benzamide] | 7.2
Cc1ccc(C(=O)NC2CC2)cc1-n1cc(Cl)nc(NCCc2ccccc2)c1=O [Example 110, 3-[5-Chloro-2-oxo-3-[(2-phenylethyl)amino]-1(2H)-pyrazinyl]-N-cyclopropyl-4-methyl-benzamide] | 6.7
CONC(=O)c1ccc(C)c(-n2ccnc(NCc3ccccc3CN3CCN(C)CC3)c2=O)c1 [Example 111, N-Methoxy-4-methyl-3-[3-[[[2-[(4-methyl-1-piperazinyl)methyl]phenyl]methyl]amino]-2-oxo-1(2H)-pyrazinyl]-benzamide] | 7.1
CONC(=O)c1ccc(C)c(-n2ccnc(NC(C)(C)c3ccccc3)c2=O)c1 [Example 112, N-Methoxy-4-methyl-3-[3-[(1-methyl-1-phenylethyl)amino]-2-oxo-1(2H)-pyrazinyl]] | 9.4
CC[C@@H](Nc1nccn(-c2cc(C(=O)NOC)ccc2C)c1=O)c1ccccc1 [Example 113, N-Methoxy-4-methyl-3-[2-oxo-3-[[(1R)-1-phenylpropyl]amino]-1(2H)-pyrazinyl]-benzamide, trifluoroacetate] | 9.8
Cc1ccc(C(=O)NC2CC2)cc1-n1ccnc(-c2ccccc2)c1=O [Example 114, N-Cyclopropyl-4-methyl-3-(2-oxo-3-phenyl-1(2H)-pyrazinyl)-benzamide] | 6.6
CCNC(=O)c1ccc(C)c(-n2ccnc(NCc3ccccc3)c2=O)c1 [Example 115, N-Ethyl-4-methyl-3-[2-oxo-3-[(phenylmethyl)amino]-1(2H)-pyrazinyl]-benzamide] | 6.9
Cc1ccc(C(=O)NC2CC2)cc1-n1ccnc(Oc2ccccc2)c1=O [Example 116, N-Cyclopropyl-4-methyl-3-(2-oxo-3-phenoxy-1(2H)-pyrazinyl)-benzamide] | 6.4
Cc1ccc(C(=O)NC2CC2)cc1-n1ccnc(Sc2ccccc2)c1=O [Example 117, N-Cyclopropyl-4-methyl-3-[2-oxo-3-(phenylthio)-1(2H)-pyrazinyl]-benzamide] | 6.8
Cc1ccc(C(=O)NC2CC2)cc1-n1ccnc(SCc2ccccc2)c1=O [Example 118] | 7.3
Cc1ccc(C(=O)NC2CC2)cc1-n1ccnc(N2CCN(C)CC2c2ccccc2)c1=O (centres unmarked) [Example 119, N-Cyclopropyl-4-methyl-3-[3-(4-methyl-2-phenyl-1-piperazinyl)-2-oxo-1(2H)-pyrazinyl]-benzamide] | 6.6
Cc1ccc(C(=O)NC2CC2)cc1-n1cc(Br)nc(N2CCN(C)CC2c2ccccc2)c1=O (centres unmarked) [Example 120, 3-[5-bromo-3-(4-methyl-2-phenyl-1-piperazinyl)-2-oxo-1(2H)-pyrazinyl]-N-cyclopropyl-4-methyl-benzamide] | 6.4
Cc1ccc(C(=O)NC2CC2)cc1-n1ccnc(N(CCN(C)C)Cc2ccccc2)c1=O [Example 121, N-Cyclopropyl-3-[3-[[2-(dimethylamino)ethyl](phenylmethyl)amino]-2-oxo-1(2H)-pyrazinyl]-4-methyl-benzamide] | 6
Cc1ccc(C(=O)N2CCCC2)cc1-n1cc(Br)nc(N2CCN(CCN3CCCC3)C(c3ccccc3)C2)c1=O (centres unmarked) [Example 122, 1-[3-[5-Bromo-2-oxo-3-[3-phenyl-4-[2-(1-pyrrolidinyl)ethyl]-1-piperazinyl]-1(2H)-pyrazinyl]-4-methylbenzoyl]-pyrrolidine] | 5.6
Cc1ccc(C(=O)NC2CC2)cc1-n1ccnc(N2CCN(CCN3CCCC3)C(c3ccccc3)C2)c1=O (centres unmarked) [Example 123, N-Cyclopropyl-4-methyl-3-[2-oxo-3-[3-phenyl-4-[2-(1-pyrrolidinyl)ethyl]-1-piperazinyl]-1(2H)-pyrazinyl]-benzamide] | 7
Cc1ccc(C(=O)NC2CC2)cc1-n1ccnc(NCc2cccc(CN)c2)c1=O [Example 124, 3-[3-[[[3-(Aminomethyl)phenyl]methyl]amino]-2-oxo-1(2H)-pyrazinyl]-N-cyclopropyl-4-methyl-benzamide] | 6.9
